Assay results published in US20220387472A1, “COMPOSITIONS AND METHODS FOR TREATING CANCER” (AIM ImmunoTech Inc., priority 2020, published 2022).
“And” between values parts separate entries of the source, which are not always exact repeats. Identical values can stand only once. Like-named read-outs stand apart in the source and are kept apart here.

Columns and labels:
[1] = test system: Pancreatic Adenocarcinoma; conditions: cited from earlier work
[2] = Maximum tolerated dose (MTD) in NHP; format: in vivo; conditions: NHP (Cynomolgus monkey)
Procedure: (§1) Ampligen® has undergone extensive preclinical safety testing including 18 animal (mice, rat, rabbit, dog, and monkey) toxicity studies; 6 animal (rat and rabbit) reproductive studies, and 2 animal (rat, monkey) PK/PD studies. The MTD for humans and NHPs is >10 mg/kg and >36 mg/kg, respectively.

[3] = test system: metastatic or locally advanced pancreatic carcinoma; assay: Survival of pancreatic cancer patients given […] following FOLFIRINOX vs matched historical control group; format: in vivo, human; conditions: n = 27 per group, from start of FOLFIRINOX, control: FOLFIRINOX only (historical); for Median Overall Survival: AMPLIGEN i.v. 200 mg twice weekly for 2 weeks, then 400 mg twice weekly, 18 weeks total, following FOLFIRINOX
Procedure: In this case, the tdsRNA used is rintatolimod ([…]®) which is a form of tdsRNA. Included in the study were adults with metastatic or locally advanced pancreatic carcinoma following FOLFIRINOX treatment. The tdsRNA treatment was rintatolimod ([…]®) administered i.v. 200 mg twice weekly for 2 weeks, then 400 mg twice weekly for a total treatment duration of 18 weeks.
The experiment compared survival in the experimental […]® cohort (n=27) compared to a historical control group (n=27) matched for age, gender, disease stage and number of cycles of FOLFIRINOX.
To be selected for the study, the patient should be over 18 years in age and diagnosed with locally advanced pancreatic cancer (LAPC) or metastasized pancreatic cancer. These LACP patients were not candidates for surgical resection. The patient should have completed the standard of care (e.g., A FOLFIRINOX regimen) and the patient should have no progressive disease (as detected by computed tomography (CT) 6 weeks after treatment). Patients with second malignancy (simultaneous), on immunosuppressive medication, or having liver-renal insufficiency were excluded.
Survival analysis was performed as follows. A group of 136 patients was assembled from a retrospective database, including all patients who received FOLFIRINOX between 2012-2018. Variables that were matched include age (+ or −10 years); gender; disease stage (locally advanced pancreatic cancer (LAPC), metastasized, metastasized after resection); and the number of FOLFIRINOX cycles to obtain a historical control group that was well-matched to the experimental group. The outcomes were determined from the start of FOLFIRINOX, and the overall survival and progression-free survival were calculated.

[4] = cynomolgus monkey, in vivo, 6 mg/kg
Procedure: as §1

[5] = parameters: species or system Humans; conditions: human, in vivo, 6 mg/kg
Procedure: as §1

[6] = Maximum tolerated dose (MTD) in humans; format: in vivo
Procedure: as §1

[7] = Clinical safety and tolerability of tdsRNA (rintatolimod); format: in vivo, human; conditions: for Tolerability: twice weekly infusions
Description: tdsRNA (e.g., Rintatolimod) has undergone extensive clinical and preclinical testing. […] Favorable safety profiles have been seen for intraperitoneal, intravenous, and intranasal routes of administration of tdsRNA.
Our analysis and previous studies have shown that […]® has a very good safety profile. […]® lacks the potent toxicities seen with most chemotherapeutic agents. See, e.g., […]®'s safety profile in other parts of this disclosure. […] Thus, we believe the ideal use of […]® would be to continue therapy beyond 18 weeks until time of tumor progression. We believe this approach could add an additional 4 to 6 months or more to the overall survival (OS) benefit.

[8] = clinical trials enrolling over 1,200 patients, over 100,000 doses

Compound: Nc1ccn([C@@H]2O[C@H](CO)[C@@H](O)C2(F)F)c(=O)n1 [gemcitabine]
- OS Months ([1]; First-Line Therapy, median overall survival): 6.7 Months and 6.0 Months and 6.8 Months

Compound: O=C(c1cc(Cc2n[nH]c(=O)c3ccccc23)ccc1F)N1CCN(C(=O)C2CC2)CC1 [Lynparza]
- OS Over Control ([1]; Second-Line Therapy, median OS over the control arm): 3.6 months

Compound: rIn.r(C12U)n
- MTD ([2]; based on 4 weeks): 100 mg/kg
- MTD ([2]; based on 24 weeks): > 36 mg/kg
- Median Progression-free Survival ([3]; AMPLIGEN following FOLFIRINOX): 12.0 months
- Median Overall Survival [3]: 19.0 months and 19 months
- Median Overall Survival ([3]; listed as Ampligen): 19 months
- Half-Life [4]: 22.9 min
- Half-Life [5]: 36.5 min
- MTD ([6]; based on 1200 mg BIW (cancer)): 17 mg/kg
- MTD ([6]; based on randomized, well-controlled 24 week study in HIV disease): > 10 mg/kg
- Drug-related deaths [7, 8]: no drug-related deaths
- Tolerability [7, 8]: generally well-tolerated
- Tolerability ([7]; clinical trials enrolling over 1,200 patients, over 100,000 doses, listed as Ampligen): generally well-tolerated
- Tolerability ([7]; clinical trials enrolling over 1,200 patients, over 100,000 doses, listed as Rintatolimod): well-tolerated
- Cumulative toxicities ([7]; human, in vivo): no evidence of any cumulative toxicities
- Serious adverse events compared to placebo ([7]; two placebo-controlled, randomized studies): no increase in serious adverse events compared to placebo
